Target: P. falciparum apicoplast DNA polymerase (Pf-apPOL) (Plasmodium falciparum, UniProt Q8ILY1)
Test: Fluorescence-based high-throughput DNA polymerase assay (molecular beacon), primary screen and dose-response
Assay type: biochemical
Protocol: The HT assay employs a molecular beacon, a stem-loop DNA template with a Cy3 dye and the Black Hole Quencher on the 3′ and 5′ ends of the DNA, respectively. Pf-apPOL concentration is based on a calculated absorptivity of ε280 = 56750 M^−1 cm^−1. Reactions were carried out at 25 °C, using Corning 3575 […] (well-volume, 20 µL). Assays testing for compound inhibition composed of reaction buffer (pH 7.9 in 50 mM potassium acetate, 20 mM Tris-acetate and 10 mM magnesium acetate), Pf-apPOL (20 nM), DNA substrate (20 nM), dNTPs (6 µM), and compound (10 µM in DMSO). The DNA and nucleotide substrates (dNTPs) were at concentrations of 20 nM and 6 µM, respectively, in the assay. Pf-apPOL was incubated in the reaction buffer with dNTPs and the compound of interest (10 µM, in the assay) at 25 °C for 10 min. The DNA substrate was then added and the reaction was allowed to proceed for 90 min at 25 °C.
Each assay plate contained 16 negative controls (no Pf-apPOL, DMSO present) and 16 positive controls (Pf-apPOL present, no DMSO). The fluorescence of each well was determined using a BioTek Synergy Neo fluorescence plate reader using excitation and emission wavelengths of 555 and 570 nm, respectively.
In the above, Min is the average of fluorescence emission of the negative controls (substrate only), Max the average fluorescence emission from the positive controls (enzyme + substrate), and Test the emission from the assays in the presence of compounds (enzyme + compound + substrates). […] […] The IC50 of each compound was determined using Equation (2): (2) IC50= Vmax/(1+ (I/IC50)^n)
In the above, n measures cooperativity, with n > 1 indicating synergistic binding of more than a single molecule of the compound.
To identify apPOL inhibitors we utilised our previously developed high-throughput DNA polymerase assay. The HT assay is based on a molecular beacon DNA template that forms a stem-loop with a Cy3 dye and the Black Hole Quencher on the 3′ and 5′ ends of the DNA, respectively. DNA polymerase activity extends an annealed primer through the stem region, displacing the fluorophore from the quencher, thereby increasing its fluorescence (Figure 1(A)). The assay accurately recapitulates the kinetic behaviour of apPOL, as measured through more conventional low-throughput gel-based assays. The Z′ factor for the assay described here was 0.9 across all plates (data not shown).
Figure 1. High-throughput screening. (A) The fluorescent-based DNA polymerase assay used to screen the compound libraries. The DNA template strand is a hairpin loop with a primer annealed to the loop. The 3’ end of the primer is 11 bases away from the 6 bp duplex. Strand displacement activity of the DNA polymerase separates the Cy3 dye from the Black hole quencher leading to an increase in fluorescent signal. (B) The high-throughput assay workflow. The DNA polymerase is incubated with […] compound for 10 min prior to addition of the hairpin substrate. The reaction is quenched at 3 different time points and the fluorescent signal is measured and % inhibition is determined using the provided equation.

[1] = supplemental file 2, sheet IC50 nontoxic compounds; Pf-apPOL

Sequence of P. falciparum apicoplast DNA polymerase (Pf-apPOL) (Q8ILY1 entry or part of it): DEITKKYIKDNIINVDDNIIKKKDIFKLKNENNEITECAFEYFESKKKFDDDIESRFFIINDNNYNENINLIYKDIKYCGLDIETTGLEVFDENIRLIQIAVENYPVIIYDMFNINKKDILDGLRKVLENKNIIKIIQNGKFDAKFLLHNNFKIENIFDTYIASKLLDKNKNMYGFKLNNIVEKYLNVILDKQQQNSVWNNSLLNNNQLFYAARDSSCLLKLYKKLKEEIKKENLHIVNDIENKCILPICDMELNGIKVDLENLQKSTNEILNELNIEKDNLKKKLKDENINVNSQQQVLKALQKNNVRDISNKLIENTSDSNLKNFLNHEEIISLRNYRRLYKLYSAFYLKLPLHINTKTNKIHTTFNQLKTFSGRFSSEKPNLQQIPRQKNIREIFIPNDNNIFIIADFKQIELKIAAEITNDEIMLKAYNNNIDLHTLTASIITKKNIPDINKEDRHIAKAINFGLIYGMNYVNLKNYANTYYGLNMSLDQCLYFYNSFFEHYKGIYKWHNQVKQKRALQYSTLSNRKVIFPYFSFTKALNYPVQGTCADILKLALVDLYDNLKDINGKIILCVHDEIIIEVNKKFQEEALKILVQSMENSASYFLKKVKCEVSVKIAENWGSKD

Cc1ccc(C)n1-c1ccc(C(=O)NNC(=O)c2ccc3nccnc3c2)cc1 [Molecule 53]
IC50 [1]: 20.4 µM

COc1ccc(C(=O)Nc2cccc(-c3nc4ncccc4o3)c2)cc1[N+](=O)[O-] [KU0063313]
DNA Pol (186 hits, value of the hit list (primary screen); unit not given; 90 min, 10 µM): 31 | % inhibition Apo pol 10' (DRC-1; 10'; concentration 2.5): 4.335% | % inhibition Apo pol 10' (DRC-1; 10'; concentration 5): 2.852% | % inhibition Apo pol 10' (DRC-1; 10'; concentration 10): 35.1619% | % inhibition Apo pol 10' (DRC-1; 10'; concentration 20): 59.4699% | % inhibition Apo pol 10' (DRC-1; 10'; concentration 40): 4.461% | % inhibition Apo pol 10' (DRC-1; 10'; concentration 80): 70.0671% | % inhibition Apol 90' (DRC-1; 90'; concentration 2.5): 2.478% | % inhibition Apol 90' (DRC-1; 90'; concentration 5): 4.0361% | % inhibition Apol 90' (DRC-1; 90'; concentration 10): 26.4412% | % inhibition Apol 90' (DRC-1; 90'; concentration 20): 41.4228% | % inhibition Apol 90' (DRC-1; 90'; concentration 40): 2.829% | % inhibition Apol 90' (DRC-1; 90'; concentration 80): 43.7849% | % inhibition apPOL 180' (DRC-1; 180'; concentration 2.5): -1.663% | % inhibition apPOL 180' (DRC-1; 180'; concentration 5): 2.317% | % inhibition apPOL 180' (DRC-1; 180'; concentration 10): 20.5277% | % inhibition apPOL 180' (DRC-1; 180'; concentration 20): 37.6573% | % inhibition apPOL 180' (DRC-1; 180'; concentration 40): 6.705% | % inhibition apPOL 180' (DRC-1; 180'; concentration 80): 38.9716% | % inhibition Apo pol 5' (DRC-2, 5', concentration 2.5): 0.145% | % inhibition Apo pol 5' (DRC-2, 5', concentration 5): 8% | % inhibition Apo pol 5' (DRC-2, 5', concentration 10): 16% | % inhibition Apo pol 5' (DRC-2, 5', concentration 20): 4% | % inhibition Apo pol 5' (DRC-2, 5', concentration 40): 29% | % inhibition Apo pol 5' (DRC-2, 5', concentration 80): 15% | % inhibition Apol 40' (DRC-2, 40', concentration 2.5): 0.929% | % inhibition Apol 40' (DRC-2, 40', concentration 5): 10% | % inhibition Apol 40' (DRC-2, 40', concentration 10): 18% | % inhibition Apol 40' (DRC-2, 40', concentration 20): 1.88% | % inhibition Apol 40' (DRC-2, 40', concentration 40): 61% | % inhibition Apol 40' (DRC-2, 40', concentration 80): 45% | % inhibition ApPOL 90' (DRC-2, 90', concentration 2.5): 0.838% | % inhibition ApPOL 90' (DRC-2, 90', concentration 5): 10% | % inhibition ApPOL 90' (DRC-2, 90', concentration 10): 15% | % inhibition ApPOL 90' (DRC-2, 90', concentration 20): -0.691% | % inhibition ApPOL 90' (DRC-2, 90', concentration 40): 68% | % inhibition ApPOL 90' (DRC-2, 90', concentration 80): 58% | % inhibition apPOL 180' (DRC-2, 180', concentration 2.5): -5% | % inhibition apPOL 180' (DRC-2, 180', concentration 5): 2.55% | % inhibition apPOL 180' (DRC-2, 180', concentration 10): 8% | % inhibition apPOL 180' (DRC-2, 180', concentration 20): -8% | % inhibition apPOL 180' (DRC-2, 180', concentration 40): 73% | % inhibition apPOL 180' (DRC-2, 180', concentration 80): 62% | % inhibition Apo pol 5' (DRC-2; 5'; concentration 5): 8% | % inhibition Apo pol 5' (DRC-2; 5'; concentration 80): 15% | % inhibition Apol 40' (DRC-2; 40'; concentration 5): 10% | % inhibition ApPOL 90' (DRC-2; 90'; concentration 5): 10% | % inhibition ApPOL 90' (DRC-2; 90'; concentration 10): 15% | % inhibition apPOL 180' (DRC-2; 180'; concentration 10): 8% | DNA Pol (primary screen value, 'DNA Pol' only; 90 min, 10 µM): 31

COc1ccc2c(c1)CCc1c-2nc2ccc(Br)cc2c1C(=O)O [KU0059417]
DNA Pol ('DNA Pol'; screening value, unit not given; 90 min, 10 µM): 29 | % inhibition Apo pol 10' (DRC-1; 10'; concentration 2.5): 25.2919% | % inhibition Apo pol 10' (DRC-1; 10'; concentration 5): 33.9692% | % inhibition Apo pol 10' (DRC-1; 10'; concentration 10): 45.4557% | % inhibition Apo pol 10' (DRC-1; 10'; concentration 20): 55.4931% | % inhibition Apo pol 10' (DRC-1; 10'; concentration 40): 69.0477% | % inhibition Apo pol 10' (DRC-1; 10'; concentration 80): 75.6745% | % inhibition Apol 90' (DRC-1; 90'; concentration 2.5): 11.1508% | % inhibition Apol 90' (DRC-1; 90'; concentration 5): 18.7068% | % inhibition Apol 90' (DRC-1; 90'; concentration 10): 30.3823% | % inhibition Apol 90' (DRC-1; 90'; concentration 20): 41.2946% | % inhibition Apol 90' (DRC-1; 90'; concentration 40): 54.5207% | % inhibition Apol 90' (DRC-1; 90'; concentration 80): 62.4129% | % inhibition apPOL 180' (DRC-1; 180'; concentration 2.5): 3.289% | % inhibition apPOL 180' (DRC-1; 180'; concentration 5): 10.0066% | % inhibition apPOL 180' (DRC-1; 180'; concentration 10): 20.2825% | % inhibition apPOL 180' (DRC-1; 180'; concentration 20): 30.8503% | % inhibition apPOL 180' (DRC-1; 180'; concentration 40): 43.5885% | % inhibition apPOL 180' (DRC-1; 180'; concentration 80): 50.0867% | % inhibition Apo pol 5' (DRC-2, 5', concentration 2.5): 21% | % inhibition Apo pol 5' (DRC-2, 5', concentration 5): 27% | % inhibition Apo pol 5' (DRC-2, 5', concentration 10): 34% | % inhibition Apo pol 5' (DRC-2, 5', concentration 20): 40% | % inhibition Apo pol 5' (DRC-2, 5', concentration 40): 53% | % inhibition Apo pol 5' (DRC-2, 5', concentration 80): 60% | % inhibition Apol 40' (DRC-2, 40', concentration 2.5): 17% | % inhibition Apol 40' (DRC-2, 40', concentration 5): 24% | % inhibition Apol 40' (DRC-2, 40', concentration 10): 33% | % inhibition Apol 40' (DRC-2, 40', concentration 20): 39% | % inhibition Apol 40' (DRC-2, 40', concentration 40): 54% | % inhibition Apol 40' (DRC-2, 40', concentration 80): 68% | % inhibition ApPOL 90' (DRC-2, 90', concentration 2.5): 15% | % inhibition ApPOL 90' (DRC-2, 90', concentration 5): 22% | % inhibition ApPOL 90' (DRC-2, 90', concentration 10): 31% | % inhibition ApPOL 90' (DRC-2, 90', concentration 20): 37% | % inhibition ApPOL 90' (DRC-2, 90', concentration 40): 52% | % inhibition ApPOL 90' (DRC-2, 90', concentration 80): 69% | % inhibition apPOL 180' (DRC-2, 180', concentration 2.5): 7% | % inhibition apPOL 180' (DRC-2, 180', concentration 5): 13% | % inhibition apPOL 180' (DRC-2, 180', concentration 10): 20% | % inhibition apPOL 180' (DRC-2, 180', concentration 20): 25% | % inhibition apPOL 180' (DRC-2, 180', concentration 40): 42% | % inhibition apPOL 180' (DRC-2, 180', concentration 80): 64% | DNA Pol (primary screen hit value, DNA Pol (186 hits); 90 min, 10 µM): 29

Cc1cccc(CC(=O)N2CCc3c(nc4cc(-c5ccccc5)[nH]n4c3=O)C2)c1 [Molecule 12]
IC50 [1]: 5.56 µM
